Assay results from ChEMBL document CHEMBL1132901, “Synthesis and structure-activity relationships of quaternary ammonium cephalosporins with 3-pyrazolylpyridinium derivatives” (2000).
In brackets after ≈: the same amount, converted by molar mass.

How the values were obtained:
Streptococcus pyogenes [1] = assay: In vitro antimicrobial activity against Streptococcus pyogenes SG 511; assay type: functional
Enterococcus faecium = assay: In vitro antimicrobial activity against Streptococcus faecium MD 8b; assay type: functional
Enterobacter cloacae [2] = assay: In vitro antimicrobial activity against Enterobacter cloacae P99; assay type: functional
Escherichia coli [3] = assay: In vitro antimicrobial activity against Escherichia coli 1507E; assay type: functional
Escherichia coli [4] = assay: In vitro antimicrobial activity against Escherichia coli TEM; assay type: functional
Staphylococcus aureus [5] = assay: In vitro antimicrobial activity against Staphylococcus aureus 285; assay type: functional
Pseudomonas aeruginosa [6] = assay: In vitro antimicrobial activity against Pseudomonas aeruginosa 9027; assay type: functional
Escherichia coli [7] = assay: In vitro antimicrobial activity against Escherichia coli DC 2; assay type: functional
Pseudomonas aeruginosa [8] = assay: In vitro antimicrobial activity against Pseudomonas aeruginosa 1592 E; assay type: functional
Staphylococcus aureus [9] = assay: In vitro antimicrobial activity against Staphylococcus aureus 503; assay type: functional
Staphylococcus aureus [10] = assay: In vitro antimicrobial activity against Methicillin resistant Staphylococcus aureus (MRSA); assay type: functional
Escherichia coli [11] = assay: In vitro antimicrobial activity against Escherichia coli DC 0; assay type: functional
Salmonella typhimurium = assay: In vitro antimicrobial activity against Salmonella Typhimurium; assay type: functional, Salmonella enterica subsp. enterica serovar Typhimurium; conditions: Salmonella enterica
Pseudomonas aeruginosa [12] = assay: In vitro antimicrobial activity against Pseudomonas aeruginosa 1771; assay type: functional
Streptococcus pyogenes [13] = assay: In vitro antimicrobial activity against Streptococcus pyogenes 77A; assay type: functional
Enterobacter cloacae [14] = assay: In vitro antimicrobial activity against Enterobacter 1321 E; assay type: functional
Escherichia coli [15] = assay: In vitro antimicrobial activity against Escherichia coli 055; assay type: functional
Klebsiella aerogenes = assay: In vitro antimicrobial activity against Klebsiella aerogenes 1522 E; assay type: functional
Streptococcus pyogenes [16] = assay: In vitro antimicrobial activity against Streptococcus pyogenes A 308; assay type: functional
Pseudomonas aeruginosa [17] = assay: In vitro antimicrobial activity against Pseudomonas aeruginosa 1771 M; assay type: functional
Klebsiella oxytoca = assay: In vitro antimicrobial activity against Klebsiella oxytoca 1082; assay type: functional

Row | Structure (SMILES) | MIC (Streptococcus pyogenes [1]) | MIC (Enterococcus faecium) | MIC (Enterobacter cloacae [2]) | MIC (Escherichia coli [3]) | MIC (Escherichia coli [4]) | MIC (Staphylococcus aureus [5]) | MIC (Pseudomonas aeruginosa [6]) | MIC (Escherichia coli [7]) | MIC (Pseudomonas aeruginosa [8]) | MIC (Staphylococcus aureus [9]) | MIC (Staphylococcus aureus [10]) | MIC (Escherichia coli [11]) | MIC (Salmonella typhimurium) | MIC (Pseudomonas aeruginosa [12]) | MIC (Streptococcus pyogenes [13]) | MIC (Enterobacter cloacae [14]) | MIC (Escherichia coli [15]) | MIC (Klebsiella aerogenes) | MIC (Streptococcus pyogenes [16]) | MIC (Pseudomonas aeruginosa [17]) | other results
1 | CO/N=C(/C(=O)N[C@@H]1C(=O)N2C(C(=O)[O-])=C(C[n+]3cccc(-c4cc(C(N)=O)[nH]n4)c3)CS[C@H]12)c1csc(N)n1 | 0.781 µg/mL (≈ 1.34 µM) | 3.12 µg/mL (≈ 5.35 µM) | 50 µg/mL (≈ 85.7 µM) | 0.098 µg/mL (≈ 0.168 µM) | 0.195 µg/mL (≈ 0.334 µM) | 1.56 µg/mL (≈ 2.68 µM) | 6.25 µg/mL (≈ 10.7 µM) | 0.025 µg/mL (≈ 0.0428 µM) | 3.12 µg/mL (≈ 5.35 µM) | 0.391 µg/mL (≈ 0.67 µM) | 50 µg/mL (≈ 85.7 µM) | 0.025 µg/mL (≈ 0.0428 µM) | 0.049 µg/mL (≈ 0.084 µM) | 1.56 µg/mL (≈ 2.68 µM) | 0.013 µg/mL (≈ 0.0223 µM) | 0.025 µg/mL (≈ 0.0428 µM) | 0.025 µg/mL (≈ 0.0428 µM) | 0.049 µg/mL (≈ 0.084 µM) | 0.013 µg/mL (≈ 0.0223 µM) | 0.781 µg/mL (≈ 1.34 µM) | MIC (Klebsiella oxytoca): 1.56 µg/mL (≈ 2.68 µM)
2 | CO/N=C(/C(=O)N[C@@H]1C(=O)N2C(C(=O)[O-])=C(C[n+]3cccc(-c4cc(N)n(CCO)n4)c3)CS[C@H]12)c1csc(N)n1 | 0.781 µg/mL (≈ 1.3 µM) | 1.56 µg/mL (≈ 2.61 µM) | 50 µg/mL (≈ 83.4 µM) | 0.098 µg/mL (≈ 0.163 µM) | 0.098 µg/mL (≈ 0.163 µM) | 1.56 µg/mL (≈ 2.61 µM) | 12.5 µg/mL (≈ 20.8 µM) | 0.013 µg/mL (≈ 0.0217 µM) | 6.25 µg/mL (≈ 10.4 µM) | 0.391 µg/mL (≈ 0.652 µM) | 12.5 µg/mL (≈ 20.8 µM) | 0.025 µg/mL (≈ 0.0417 µM) | 0.098 µg/mL (≈ 0.163 µM) | 3.12 µg/mL (≈ 5.21 µM) | 0.013 µg/mL (≈ 0.0217 µM) | 0.025 µg/mL (≈ 0.0417 µM) | 0.025 µg/mL (≈ 0.0417 µM) | 0.049 µg/mL (≈ 0.0817 µM) | 0.025 µg/mL (≈ 0.0417 µM) | 0.391 µg/mL (≈ 0.652 µM) | MIC (Klebsiella oxytoca): 3.12 µg/mL (≈ 5.21 µM)
3 | CO/N=C(/C(=O)N[C@@H]1C(=O)N2C(C(=O)[O-])=C(C[n+]3cccc(-c4cc(N)n(C)n4)c3)CS[C@H]12)c1csc(N)n1 | 0.781 µg/mL (≈ 1.37 µM) | 1.56 µg/mL (≈ 2.74 µM) | 25 µg/mL (≈ 43.9 µM) | 0.049 µg/mL (≈ 0.086 µM) | 0.098 µg/mL (≈ 0.172 µM) | 0.781 µg/mL (≈ 1.37 µM) | 6.25 µg/mL (≈ 11 µM) | 0.013 µg/mL (≈ 0.0228 µM) | 3.12 µg/mL (≈ 5.49 µM) | 0.391 µg/mL (≈ 0.686 µM) | 50 µg/mL (≈ 87.8 µM) | 0.025 µg/mL (≈ 0.0439 µM) | 0.049 µg/mL (≈ 0.086 µM) | 1.56 µg/mL (≈ 2.74 µM) | 0.007 µg/mL (≈ 0.0123 µM) | 0.025 µg/mL (≈ 0.0439 µM) | 0.025 µg/mL (≈ 0.0439 µM) | 0.025 µg/mL (≈ 0.0439 µM) | 0.013 µg/mL (≈ 0.0228 µM) | 0.391 µg/mL (≈ 0.686 µM) | MIC (Klebsiella oxytoca): 1.56 µg/mL (≈ 2.74 µM)
4 | CO/N=C(/C(=O)N[C@@H]1C(=O)N2C(C(=O)[O-])=C(C[n+]3cccc(-c4cc(N)[nH]n4)c3)CS[C@H]12)c1csc(N)n1 | 0.391 µg/mL (≈ 0.704 µM) | 1.56 µg/mL (≈ 2.81 µM) | 50 µg/mL (≈ 90 µM) | 0.025 µg/mL (≈ 0.045 µM) | 0.049 µg/mL (≈ 0.0882 µM) | 0.781 µg/mL (≈ 1.41 µM) | 3.12 µg/mL (≈ 5.62 µM) | 0.013 µg/mL (≈ 0.0234 µM) | 1.56 µg/mL (≈ 2.81 µM) | 0.195 µg/mL (≈ 0.351 µM) | 25 µg/mL (≈ 45 µM) | 0.025 µg/mL (≈ 0.045 µM) | 0.049 µg/mL (≈ 0.0882 µM) | 0.781 µg/mL (≈ 1.41 µM) | 0.007 µg/mL (≈ 0.0126 µM) | 0.013 µg/mL (≈ 0.0234 µM) | 0.013 µg/mL (≈ 0.0234 µM) | 0.025 µg/mL (≈ 0.045 µM) | 0.007 µg/mL (≈ 0.0126 µM) | 0.195 µg/mL (≈ 0.351 µM) | MIC (Klebsiella oxytoca): 1.56 µg/mL (≈ 2.81 µM)
5 | CO/N=C(/C(=O)N[C@@H]1C(=O)N2C(C(=O)[O-])=C(C[n+]3cccc(-c4cc(C(N)=O)nn4CCO)c3)CS[C@H]12)c1csc(N)n1 | 1.56 µg/mL (≈ 2.49 µM) | 6.25 µg/mL (≈ 9.96 µM) | 50 µg/mL (≈ 79.7 µM) | 0.195 µg/mL (≈ 0.311 µM) | 0.391 µg/mL (≈ 0.623 µM) | 3.12 µg/mL (≈ 4.98 µM) | 25 µg/mL (≈ 39.8 µM) | 0.098 µg/mL (≈ 0.156 µM) | 12.5 µg/mL (≈ 19.9 µM) | 0.781 µg/mL (≈ 1.24 µM) | 25 µg/mL (≈ 39.8 µM) | 0.098 µg/mL (≈ 0.156 µM) | 0.098 µg/mL (≈ 0.156 µM) | 3.12 µg/mL (≈ 4.98 µM) | 0.025 µg/mL (≈ 0.0398 µM) | 0.049 µg/mL (≈ 0.0781 µM) | 0.098 µg/mL (≈ 0.156 µM) | 0.098 µg/mL (≈ 0.156 µM) | 0.049 µg/mL (≈ 0.0781 µM) | 0.781 µg/mL (≈ 1.24 µM) | MIC (Klebsiella oxytoca): 6.25 µg/mL (≈ 9.96 µM)
6 | CO/N=C(/C(=O)N[C@@H]1C(=O)N2C(C(=O)[O-])=C(C[n+]3cccc(-c4cc(C(N)=O)nn4C)c3)CS[C@H]12)c1csc(N)n1 | 1.56 µg/mL (≈ 2.62 µM) | 3.12 µg/mL (≈ 5.23 µM) | 25 µg/mL (≈ 41.8 µM) | 0.098 µg/mL (≈ 0.164 µM) | 0.195 µg/mL (≈ 0.326 µM) | 3.12 µg/mL (≈ 5.23 µM) | 25 µg/mL (≈ 41.8 µM) | 0.025 µg/mL (≈ 0.0418 µM) | 12.5 µg/mL (≈ 20.9 µM) | 0.391 µg/mL (≈ 0.654 µM) | 100 µg/mL (≈ 167 µM) | 0.049 µg/mL (≈ 0.082 µM) | 0.098 µg/mL (≈ 0.164 µM) | 3.12 µg/mL (≈ 5.23 µM) | 0.013 µg/mL (≈ 0.0218 µM) | 0.025 µg/mL (≈ 0.0418 µM) | 0.049 µg/mL (≈ 0.082 µM) | 0.049 µg/mL (≈ 0.082 µM) | 0.025 µg/mL (≈ 0.0418 µM) | 0.391 µg/mL (≈ 0.654 µM) | MIC (Klebsiella oxytoca): 3.12 µg/mL (≈ 5.23 µM)
7 | CC(C)(O/N=C(\C(=O)N[C@@H]1C(=O)N2C(C(=O)[O-])=C(C[n+]3ccccc3)CS[C@H]12)c1csc(N)n1)C(=O)O [CEFTAZIDIME] | 12.5 µg/mL (≈ 22.9 µM) | > 100 µg/mL | > 100 µg/mL | 0.195 µg/mL (≈ 0.357 µM) | 0.195 µg/mL (≈ 0.357 µM) | 12.5 µg/mL (≈ 22.9 µM) | 3.12 µg/mL (≈ 5.72 µM) | 0.098 µg/mL (≈ 0.179 µM) | 1.56 µg/mL (≈ 2.86 µM) | 3.12 µg/mL (≈ 5.72 µM) | > 100 µg/mL | 0.098 µg/mL (≈ 0.179 µM) | 0.195 µg/mL (≈ 0.357 µM) | 0.781 µg/mL (≈ 1.43 µM) | 0.049 µg/mL (≈ 0.0896 µM) | 0.025 µg/mL (≈ 0.0457 µM) | 0.098 µg/mL (≈ 0.179 µM) | 0.098 µg/mL (≈ 0.179 µM) | 0.098 µg/mL (≈ 0.179 µM) | 0.195 µg/mL (≈ 0.357 µM) | MIC (Klebsiella oxytoca): 0.391 µg/mL (≈ 0.715 µM)
